# How the values were obtained:
# [1] = tested on: Pseudomonas aeruginosa; experiment: Antibiofilm activity against Pseudomonas aeruginosa PAO1; format: functional, organism-based
# [2] = tested on: Pseudomonas aeruginosa; experiment: Antibacterial activity against Pseudomonas aeruginosa PAO1 assessed as bacterial growth inhibition incubated for 24 hrs by micro-broth dilution method; format: functional
# [3] = tested on: Pseudomonas aeruginosa; experiment: Downregulation of lasR mRNA expression level in Pseudomonas aeruginosa PAO1 at 200 uM by RT-PCR analysis relative to control; format: functional
# [4] = tested on: Pseudomonas aeruginosa; experiment: Downregulation of lasI mRNA expression level in Pseudomonas aeruginosa PAO1 at 200 uM by RT-PCR analysis relative to control; format: functional
# [5] = tested on: Pseudomonas aeruginosa; experiment: Downregulation of rhlR mRNA expression level in Pseudomonas aeruginosa PAO1 at 200 uM by RT-PCR analysis relative to control; format: functional
# [6] = tested on: Pseudomonas aeruginosa; experiment: Downregulation of rhlI mRNA expression level in Pseudomonas aeruginosa PAO1 at 200 uM by RT-PCR analysis relative to control; format: functional
# [7] = tested on: Pseudomonas aeruginosa; experiment: Antimicrobial activity against Pseudomonas aeruginosa PAO1 assessed as reduction in bacterial growth measured for 24 hrs by broth micro-dilution method; format: functional
# [8] = tested on: Pseudomonas aeruginosa; experiment: Antivirulence activity against Pseudomonas aeruginosa PAO1 assessed as inhibition of pyocyanin production; format: functional, organism-based
# [9] = Inhibition of quorum sensing system in Pseudomonas aeruginosa PAO1-pqsA assessed as reduction in fluorescence intensity measured for 12 hrs by GFP reporter strain assay
# [10] = tested on: Pseudomonas aeruginosa; experiment: Antimicrobial activity against Pseudomonas aeruginosa assessed as reduction in microbial growth; format: functional, organism-based
# [11] = tested on: Pseudomonas aeruginosa; experiment: Antibiofilm activity against Pseudomonas aeruginosa assessed as reduction in biofilm formation incubated for 24 hrs relative to control; format: functional; parameters: scale not given: the % may be the effect or the level left
# [12] = tested on: Pseudomonas aeruginosa; experiment: Anti-virulence activity against Pseudomonas aeruginosa assessed as reduction in protease production level at 100 uM incubated for 24 hrs by absorbance based assay relative to control; format: functional; parameters: scale not given: the % may be the effect or the level left
# [13] = tested on: Pseudomonas aeruginosa; experiment: Anti-virulence activity against Pseudomonas aeruginosa assessed as reduction in pyocyanin production level at 100 uM incubated for 24 hrs by absorbance based assay relative to control; format: functional; parameters: scale not given: the % may be the effect or the level left
# [14] = tested on: Pseudomonas aeruginosa; experiment: Antivirulence activity against Pseudomonas aeruginosa assessed as reduction in elastase level at 100 uM incubated for 24 hrs by elastin-Congo red staining based analysis relative to control; format: functional; parameters: scale not given: the % may be the effect or the level left
# [15] = tested on: Pseudomonas aeruginosa; experiment: Downregulation of lasR mRNA expression in Pseudomonas aeruginosa PAO1 incubated for 4 hrs by RT-qPCR analysis; format: functional, organism-based; conditions: PAO1, 4 h
# [16] = tested on: Pseudomonas aeruginosa; experiment: Downregulation of rhlR mRNA expression in Pseudomonas aeruginosa PAO1 incubated for 4 hrs by RT-qPCR analysis; format: functional, organism-based; conditions: PAO1, 4 h
# [17] = tested on: Pseudomonas aeruginosa; experiment: Downregulation of pqsR mRNA expression in Pseudomonas aeruginosa PAO1 incubated for 4 hrs by RT-qPCR analysis; format: functional, organism-based; conditions: PAO1, 4 h
# [18] = tested on: Pseudomonas aeruginosa; experiment: Downregulation of lasA mRNA expression in Pseudomonas aeruginosa PAO1 incubated for 4 hrs by RT-qPCR analysis; format: functional, organism-based; conditions: PAO1, 4 h
# [19] = tested on: Pseudomonas aeruginosa; experiment: Downregulation of lasB mRNA expression in Pseudomonas aeruginosa PAO1 incubated for 4 hrs by RT-qPCR analysis; format: functional, organism-based; conditions: PAO1, 4 h
# [20] = tested on: Pseudomonas aeruginosa; experiment: Downregulation of rhlI mRNA expression in Pseudomonas aeruginosa PAO1 incubated for 4 hrs by RT-qPCR analysis; format: functional, organism-based; conditions: PAO1, 4 h
smiles,measurement,setting,value
O=c1c(O)c(-c2ccc(O)c(O)c2)oc2cc(O)cc(O)c12 [QUERCETIN],IC50,[1],100 µM
same,MIC,[2],1 µM
same,Activity,[3],85%
same,Activity,[4],85%
same,Activity,[5],85%
same,Activity,[6],85%
Fc1ccc(-c2nn(-c3ccc(Cl)cc3)cc2-c2nc(-c3ccccc3)c(-c3ccccc3)[nH]2)c(Br)c1,MIC,[7],63 µg/mL
CC(C)=CCC/C(C)=C/CC/C(C)=C/CO [FARNESOL],IC50,[8],1.11 µg/mL
same,IC50,[9],0.14 µg/mL
CCOP(=O)(NCCCCOc1cc(O)c2c(=O)cc(-c3ccccc3)oc2c1)OCC,IC50,[10],100 µM
same,Activity,[11],78%
same,Activity,[12],18.8%
same,Activity,[13],63.8%
same,Activity,[14],42.2%
same,IC50,[15],100 µM
same,IC50,[16],100 µM
same,IC50,[17],100 µM
same,IC50,[18],100 µM
same,IC50,[19],100 µM
same,IC50,[20],100 µM
